Where two headings read alike, the source gives them in different places.
Experiments:
Assay type in all cases: in vivo
[1] = system: Green Peach Aphid (Myzus persicae); assay: B.2 Green peach aphid, artificial diet, systemic; conditions: 72 h, read-out: mortality in comparison with untreated controls
Summary of the method: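 Adult aphids (5-8 per well) fed through a membrane on artificial diet containing compound formulated in 75% water/25% DMSO, with two replications per concentration. Incubation lasted 3 days at about 23±1° C and 50±5% relative humidity. Mortality and fecundity were then assessed visually.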

[2] = system: Tobacco Budworm (Heliothis virescens); assay: B.4 Tobacco budworm, insect diet with eggs; conditions: 120 h, read-out: mortality in comparison with untreated controls
Summary of the method: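 Wells held insect diet and 15–25 H. virescens eggs; compounds at several concentrations, formulated in 75:25 v/v water:DMSO, were sprayed at 10 μl onto the diet in two replicates. After 5 days at about 28±1 °C and 80±5% relative humidity, egg and larval mortality was scored visually.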

[3] = system: Brown Marmorated Stink Bug (Halyomorpha halys); assay: B.13 Brown marmorated stink bug, spray; conditions: 120 h, read-out: mortality in comparison with untreated controls
Procedure: B.13 Brown Marmorated Stink Bug (Halyomorpha halys)
The active compound was dissolved at the desired concentration in a mixture of 1:1 (vol:vol) distilled water:acetone. Surfactant (Kinetic HV) was added at a rate of 0.01% (vol/vol). The test solution was prepared at the day of use.
Row peanuts and soybean seeds were placed into microwavable plastic cups and inoculated with five adult stage H. halys. Using a hand atomizer, approximately 1 ml solution is sprayed into each cup, insects and food present. A water source was provided (cotton wick with water) Each treatment is replicated 4-fold. Assay arenas are kept at about 25° C. Percent mortality was recorded after 5 days.

[4] = system: Silverleaf Whitefly (Bemisia argentifolii); assay: CE.4 Silverleaf whitefly, comparative test; conditions: 72 h, read-out: % mortality in comparison to untreated controls
Procedure: (§1) The tables show % mortality in comparison to untreated controls.
CE.4 Silverleaf Whitefly (Bemisia argentifolii)
The active compounds were formulated in 50:50 acetone:water (vol:vol) and 100 ppm Kinetica™ surfactant.
Selected cotton plants were grown to the cotyledon state (one plant per pot). The cotyledons were dipped into the test solution to provide complete coverage of the foliage and placed in a well-vented area to dry. Each pot with treated seedling was placed in a plastic cup and 10 to 12 whitefly adults (approximately 3-5 day old) were introduced. The insects were collected using an aspirator and a Tygon® tubing connected to a barrier pipette tip. The tip, containing the collected insects, was then gently inserted into the soil containing the treated plant, allowing insects to crawl out of the tip to reach the foliage for feeding. The cups were covered with a reusable screened lid. Test plants were maintained in the holding room at about 25° C. and about 20-40% relative humidity for 3 days avoiding direct exposure to the fluorescent light (24 hour photoperiod) to prevent trapping of heat inside the cup. Mortality was assessed 3 days after treatment of the plants.

[5] = system: Southern Armyworm (Spodoptera eridania); assay: B.10 Southern armyworm, sprayed lima bean plants; conditions: 96 h, read-out: mortality in comparison with untreated controls
Procedure: B.10 Southern Armyworm (Spodoptera eridania)
The active compounds were formulated in cyclohexanone as a 10,000 ppm solution supplied in tubes. The tubes were inserted into an automated electrostatic sprayer equipped with an atomizing nozzle and they served as stock solutions for which lower dilutions were made in 50% acetone:50% water (v/v). A nonionic surfactant (Kinetic®) was included in the solution at a volume of 0.01% (v/v).
Lima bean plants (variety Sieva) were grown 2 plants to a pot and selected for treatment at the 1st true leaf stage. Test solutions were sprayed onto the foliage by an automated electrostatic plant sprayer equipped with an atomizing spray nozzle. The plants were dried in the sprayer fume hood and then removed from the sprayer. Each pot was placed into perforated plastic bags with a zip closure. About 10 to 11 armyworm larvae were placed into the bag and the bags zipped closed. Test plants were maintained in a growth room at about 250C and about 20-40% relative humidity for 4 days, avoiding direct exposure to fluorescent light (24 hour photoperiod) to prevent trapping of heat inside the bags. Mortality and reduced feeding were assessed 4 days after treatment, compared to untreated control plants.

[6] = system: Cowpea Aphid (Aphis Craccivora); assay: CE.1 Cowpea aphid, comparative test; conditions: read-out: % mortality in comparison to untreated controls
Procedure: as §1
CE.1 Cowpea Aphid (Aphis Craccivora)
Potted cowpea plants colonized with approximately 100-150 aphids of various stages were sprayed after the pest population has been recorded. Population reduction was assessed after 24, 72, and 120 hours.

[7] = system: Orchid Thrips (Dichromothrips Corbetti); assay: CE.3 Orchid thrips, comparative test; conditions: 96 h, 10 ppm, after 4 days, read-out: % mortality in comparison to untreated controls
Summary of the method: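 Orchid flower petals were dipped in 300 ppm compound in 1:1 acetone:water plus 0.01% v/v surfactant and dried, then caged with 10-15 lab-colony adults. Live thrips were counted after 4 days, and % mortality was derived from pre-treatment numbers relative to untreated controls.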

[8] = system: Rice Brown Plant Hopper (Nilaparvata lugens); assay: CE.2 Rice brown plant hopper, comparative test; conditions: 10 ppm, after 72 hours, read-out: % mortality in comparison to untreated controls
Procedure: as §1
CE.2 Rice Brown Plant Hopper (Nilaparvata lugens)
Rice seedlings were cleaned and washed 24 hours before spraying. The active compounds were formulated in 50:50 acetone:water (vol:vol) and 0.1% vol/vol surfactant (EL 620) was added. Potted rice seedlings were sprayed with 5 ml test solution, air dried, placed in cages and inoculated with 10 adults. Treated rice plants were kept at about 28-29° C. and relative humidity of about 50-60%. Percent mortality was recorded after 72 hours.

CN1C(=O)CC(NC(=O)c2ccc(C3=NOC(c4cc(Cl)c(F)c(Cl)c4)(C(F)(F)F)C3)cc2Cl)C1=O (stereo not drawn) [Compound I-1-2, 2-Chloro-4-[5-(3,5-dichloro-4-fluoro-phenyl)-5-(trifluoromethyl)-4H-isoxazol-3-yl]-N-(1-methyl-2,5-dioxo-pyrrolidin-3-yl)benzamide]
mortality at 2500 ppm [1]: > 75% | mortality at 2500 ppm [2]: > 75% | mortality at 100 ppm [3]: > 75% | mortality at 10 ppm [4]: 88% | mortality at 10 ppm [5]: > 75%

CCN1C(=O)CC(NC(=O)c2ccc(C3=NOC(c4cc(Cl)c(F)c(Cl)c4)(C(F)(F)F)C3)cc2Cl)C1=O (stereo not drawn) [Compound I-1-3]
mortality at 2500 ppm [1]: > 75% | mortality at 2500 ppm [2]: > 75% | mortality at 100 ppm [3]: > 75% | mortality at 10 ppm [4]: 75% | mortality at 10 ppm [5]: > 75%

CN1C(=O)CC(NC(=O)c2ccc(C3=NOC(c4cc(Cl)c(F)c(Cl)c4)(C(F)(F)F)C3)c3c2CCC3)C1=O (stereo not drawn) [Compound I-1-10]
mortality at 2500 ppm [1]: > 75% | mortality at 2500 ppm [2]: > 75% | mortality at 10 ppm [5]: > 75%

CN1C(=O)C[C@@H](NC(=O)c2ccc(C3=NOC(c4cc(Cl)c(F)c(Cl)c4)(C(F)(F)F)C3)cc2Cl)C1=O (stereo partly drawn) [Compound I-1-13]
mortality at 2500 ppm [1]: > 75% | mortality at 2500 ppm [2]: > 75% | mortality at 100 ppm [3]: > 75% | mortality at 10 ppm [6]: 90% | mortality at 10 ppm [5]: > 75% | mortality at 300 ppm [5]: > 75%

CCN1C(=O)C[C@@H](NC(=O)c2ccc(C3=NOC(c4ccc(F)c(Cl)c4)(C(F)(F)F)C3)cc2Cl)C1=O (stereo partly drawn) [Compound I-1-53]
mortality at 2500 ppm ([1]; 2500 ppm, adult aphids on treated diet, 3 days): > 75% | mortality at 10 ppm [7]: 100% | mortality at 2500 ppm ([2]; 2500 ppm, egg and larval mortality, 5 days): > 75% | mortality at 10 ppm ([6]; 10 ppm, sprayed cowpea plants): 100% | mortality at 10 ppm [8]: 75%
